PMC4854315, “Discovery of a novel allosteric inhibitor-binding site in ERK5: comparison with the canonical kinase hinge ATP-binding site” (Acta Crystallographica. Section D, Structural Biology, 2016)

Tests used:
Experiment in all cases: Z'-LYTE kinase panel
Assay type in all cases: biochemical
SRC = biological target: T1, SRC (Homo sapiens, UniProt P12931)
T1 construct: purchased ThermoFisher (SelectScreen, Z'-LYTE)
How it was run: (§1)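 Standard Z′-LYTE protocol applied. Compound fixed at 10 µM. Output: % inhibition. Panel size 225 kinases.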

FLT1 (VEGFR1) = biological target: T2, FLT1 (VEGFR1) (Homo sapiens, UniProt P17948)
T2 construct: purchased ThermoFisher (SelectScreen, Z'-LYTE)
T2 sequence (P17948 27-1338): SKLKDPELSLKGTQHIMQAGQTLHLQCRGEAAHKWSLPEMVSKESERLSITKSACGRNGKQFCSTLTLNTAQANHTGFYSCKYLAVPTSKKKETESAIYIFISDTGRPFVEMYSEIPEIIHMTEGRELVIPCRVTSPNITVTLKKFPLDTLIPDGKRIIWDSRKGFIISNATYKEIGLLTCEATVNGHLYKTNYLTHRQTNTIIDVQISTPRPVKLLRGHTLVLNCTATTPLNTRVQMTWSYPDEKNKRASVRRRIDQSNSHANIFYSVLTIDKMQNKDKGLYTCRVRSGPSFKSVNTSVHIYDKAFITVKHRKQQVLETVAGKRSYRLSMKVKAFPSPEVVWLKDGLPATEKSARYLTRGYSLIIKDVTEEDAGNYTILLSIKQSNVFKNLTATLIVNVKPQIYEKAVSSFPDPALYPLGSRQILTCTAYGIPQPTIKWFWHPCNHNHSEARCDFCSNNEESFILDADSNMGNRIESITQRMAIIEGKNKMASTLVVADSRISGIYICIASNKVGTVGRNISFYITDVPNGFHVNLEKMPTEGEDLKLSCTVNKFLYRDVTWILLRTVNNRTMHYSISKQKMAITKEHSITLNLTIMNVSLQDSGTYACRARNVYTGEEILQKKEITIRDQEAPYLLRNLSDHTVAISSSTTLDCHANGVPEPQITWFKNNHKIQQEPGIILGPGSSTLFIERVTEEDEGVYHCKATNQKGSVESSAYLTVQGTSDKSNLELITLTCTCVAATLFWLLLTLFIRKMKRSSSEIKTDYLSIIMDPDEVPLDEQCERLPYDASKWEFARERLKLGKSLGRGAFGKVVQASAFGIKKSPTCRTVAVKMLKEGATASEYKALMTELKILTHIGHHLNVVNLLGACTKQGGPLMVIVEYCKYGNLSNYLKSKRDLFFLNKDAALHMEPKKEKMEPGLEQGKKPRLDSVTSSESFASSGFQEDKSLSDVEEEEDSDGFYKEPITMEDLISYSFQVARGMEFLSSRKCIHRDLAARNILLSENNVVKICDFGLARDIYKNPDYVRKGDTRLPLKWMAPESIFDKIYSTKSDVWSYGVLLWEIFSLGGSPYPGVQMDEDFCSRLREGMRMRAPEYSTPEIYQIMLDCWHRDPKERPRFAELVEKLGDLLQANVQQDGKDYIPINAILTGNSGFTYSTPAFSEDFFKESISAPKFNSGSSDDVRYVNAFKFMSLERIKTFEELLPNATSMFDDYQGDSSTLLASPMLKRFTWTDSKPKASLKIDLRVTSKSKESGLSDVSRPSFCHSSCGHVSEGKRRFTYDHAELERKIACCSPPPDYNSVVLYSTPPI
How it was run: as §1

ABL1 = biological target: T3, ABL1 (Homo sapiens, UniProt P00519)
T3 construct: purchased ThermoFisher (SelectScreen, Z'-LYTE)
T3 sequence (P00519 whole entry): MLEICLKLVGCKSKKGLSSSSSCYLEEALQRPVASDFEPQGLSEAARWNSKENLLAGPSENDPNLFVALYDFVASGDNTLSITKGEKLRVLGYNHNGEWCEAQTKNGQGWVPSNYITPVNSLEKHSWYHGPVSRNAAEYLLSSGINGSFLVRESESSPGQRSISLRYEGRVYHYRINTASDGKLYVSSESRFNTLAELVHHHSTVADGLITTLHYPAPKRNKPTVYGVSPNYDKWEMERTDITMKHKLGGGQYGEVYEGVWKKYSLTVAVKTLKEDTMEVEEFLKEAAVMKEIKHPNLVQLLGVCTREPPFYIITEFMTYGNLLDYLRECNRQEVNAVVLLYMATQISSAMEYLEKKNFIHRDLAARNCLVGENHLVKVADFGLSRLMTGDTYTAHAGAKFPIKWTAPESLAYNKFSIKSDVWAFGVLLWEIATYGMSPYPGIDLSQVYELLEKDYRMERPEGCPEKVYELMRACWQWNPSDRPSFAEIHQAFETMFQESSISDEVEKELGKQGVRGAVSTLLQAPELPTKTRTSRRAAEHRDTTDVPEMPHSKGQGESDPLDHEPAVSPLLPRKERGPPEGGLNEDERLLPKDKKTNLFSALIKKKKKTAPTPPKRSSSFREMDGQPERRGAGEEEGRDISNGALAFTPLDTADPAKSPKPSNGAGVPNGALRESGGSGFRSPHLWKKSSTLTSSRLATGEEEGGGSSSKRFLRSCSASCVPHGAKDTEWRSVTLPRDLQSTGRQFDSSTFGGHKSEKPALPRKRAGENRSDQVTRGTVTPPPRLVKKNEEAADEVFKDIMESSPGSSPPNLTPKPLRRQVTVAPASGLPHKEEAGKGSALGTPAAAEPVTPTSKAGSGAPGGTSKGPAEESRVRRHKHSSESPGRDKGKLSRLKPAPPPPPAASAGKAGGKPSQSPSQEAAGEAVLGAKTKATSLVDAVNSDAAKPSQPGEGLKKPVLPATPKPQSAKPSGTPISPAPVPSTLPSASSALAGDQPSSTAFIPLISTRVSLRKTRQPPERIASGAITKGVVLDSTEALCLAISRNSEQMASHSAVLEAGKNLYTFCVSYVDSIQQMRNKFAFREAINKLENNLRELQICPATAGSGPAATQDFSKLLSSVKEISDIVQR
How it was run: as §1

RPS6KB1 (p70S6K) = biological target: T4, RPS6KB1 (p70S6K) (Homo sapiens, UniProt P23443)
T4 construct: purchased ThermoFisher (SelectScreen, Z'-LYTE)
How it was run: as §1

NEK2 = biological target: T5, NEK2 (Homo sapiens, UniProt P51955)
T5 construct: purchased ThermoFisher (SelectScreen, Z'-LYTE)
T5 sequence (P51955 1-445): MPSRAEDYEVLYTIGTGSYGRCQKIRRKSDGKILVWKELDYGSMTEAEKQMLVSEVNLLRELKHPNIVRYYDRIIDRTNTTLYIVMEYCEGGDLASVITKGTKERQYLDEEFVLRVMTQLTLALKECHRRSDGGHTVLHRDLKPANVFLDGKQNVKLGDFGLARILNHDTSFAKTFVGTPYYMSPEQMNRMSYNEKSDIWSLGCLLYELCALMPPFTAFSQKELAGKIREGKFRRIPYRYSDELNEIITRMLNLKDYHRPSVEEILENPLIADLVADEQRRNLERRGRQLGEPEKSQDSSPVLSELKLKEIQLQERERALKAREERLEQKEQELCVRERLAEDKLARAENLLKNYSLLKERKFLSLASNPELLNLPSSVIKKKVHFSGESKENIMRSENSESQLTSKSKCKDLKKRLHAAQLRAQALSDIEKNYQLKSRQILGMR
How it was run: as §1

PASK = biological target: T6, PASK (Homo sapiens, UniProt Q96RG2)
T6 construct: purchased ThermoFisher (SelectScreen, Z'-LYTE)
How it was run: as §1

JAK2 JH1 JH2 = biological target: T7, JAK2 JH1 JH2 (Homo sapiens, UniProt O60674)
T7 construct: JAK2 JH1 JH2; purchased ThermoFisher (SelectScreen, Z'-LYTE)
How it was run: as §1

PAK2 (PAK65) = biological target: T8, PAK2 (PAK65) (Homo sapiens, UniProt Q13177)
T8 construct: purchased ThermoFisher (SelectScreen, Z'-LYTE)
How it was run: as §1

NEK1 = biological target: T9, NEK1 (Homo sapiens, UniProt Q96PY6)
T9 construct: purchased ThermoFisher (SelectScreen, Z'-LYTE)
T9 sequence (Q96PY6 1-1258): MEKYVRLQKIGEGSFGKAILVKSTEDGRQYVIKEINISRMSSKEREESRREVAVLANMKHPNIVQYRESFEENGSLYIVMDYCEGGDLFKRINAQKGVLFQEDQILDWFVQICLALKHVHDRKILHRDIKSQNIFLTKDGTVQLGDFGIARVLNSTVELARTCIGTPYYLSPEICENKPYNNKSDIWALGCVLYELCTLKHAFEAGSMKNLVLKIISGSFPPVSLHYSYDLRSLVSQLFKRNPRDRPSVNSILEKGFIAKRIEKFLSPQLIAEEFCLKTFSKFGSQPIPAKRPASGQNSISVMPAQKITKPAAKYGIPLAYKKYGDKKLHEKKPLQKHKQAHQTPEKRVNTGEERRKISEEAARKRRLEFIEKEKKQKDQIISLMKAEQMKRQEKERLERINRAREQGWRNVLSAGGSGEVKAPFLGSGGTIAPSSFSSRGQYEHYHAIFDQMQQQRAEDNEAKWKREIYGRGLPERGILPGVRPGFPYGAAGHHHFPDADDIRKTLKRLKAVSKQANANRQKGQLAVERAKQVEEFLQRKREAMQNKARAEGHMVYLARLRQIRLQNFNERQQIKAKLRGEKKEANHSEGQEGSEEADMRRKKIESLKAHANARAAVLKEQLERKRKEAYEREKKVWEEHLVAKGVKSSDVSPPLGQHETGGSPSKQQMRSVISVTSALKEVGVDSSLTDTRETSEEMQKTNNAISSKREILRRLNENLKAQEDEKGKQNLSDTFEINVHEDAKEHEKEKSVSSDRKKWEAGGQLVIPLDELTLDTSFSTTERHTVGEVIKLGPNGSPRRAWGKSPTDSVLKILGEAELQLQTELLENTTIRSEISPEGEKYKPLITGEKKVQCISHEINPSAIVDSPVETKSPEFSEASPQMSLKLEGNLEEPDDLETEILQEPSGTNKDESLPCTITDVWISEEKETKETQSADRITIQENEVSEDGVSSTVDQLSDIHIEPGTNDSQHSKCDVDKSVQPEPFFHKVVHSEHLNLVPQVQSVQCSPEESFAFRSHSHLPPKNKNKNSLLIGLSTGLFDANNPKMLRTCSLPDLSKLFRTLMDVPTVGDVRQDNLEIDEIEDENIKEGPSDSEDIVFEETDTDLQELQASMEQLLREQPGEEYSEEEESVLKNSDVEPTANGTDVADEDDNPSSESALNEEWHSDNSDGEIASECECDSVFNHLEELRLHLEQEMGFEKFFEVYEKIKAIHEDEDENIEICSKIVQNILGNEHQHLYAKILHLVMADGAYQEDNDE
How it was run: as §1

AKT1 (PKB alpha) = biological target: T10, AKT1 (PKB alpha) (Homo sapiens, UniProt P31749)
T10 construct: purchased ThermoFisher (SelectScreen, Z'-LYTE)
How it was run: as §1

EPHA4 = biological target: T11, EPHA4 (Homo sapiens, UniProt P54764)
T11 construct: purchased ThermoFisher (SelectScreen, Z'-LYTE)
T11 sequence (P54764 20-986): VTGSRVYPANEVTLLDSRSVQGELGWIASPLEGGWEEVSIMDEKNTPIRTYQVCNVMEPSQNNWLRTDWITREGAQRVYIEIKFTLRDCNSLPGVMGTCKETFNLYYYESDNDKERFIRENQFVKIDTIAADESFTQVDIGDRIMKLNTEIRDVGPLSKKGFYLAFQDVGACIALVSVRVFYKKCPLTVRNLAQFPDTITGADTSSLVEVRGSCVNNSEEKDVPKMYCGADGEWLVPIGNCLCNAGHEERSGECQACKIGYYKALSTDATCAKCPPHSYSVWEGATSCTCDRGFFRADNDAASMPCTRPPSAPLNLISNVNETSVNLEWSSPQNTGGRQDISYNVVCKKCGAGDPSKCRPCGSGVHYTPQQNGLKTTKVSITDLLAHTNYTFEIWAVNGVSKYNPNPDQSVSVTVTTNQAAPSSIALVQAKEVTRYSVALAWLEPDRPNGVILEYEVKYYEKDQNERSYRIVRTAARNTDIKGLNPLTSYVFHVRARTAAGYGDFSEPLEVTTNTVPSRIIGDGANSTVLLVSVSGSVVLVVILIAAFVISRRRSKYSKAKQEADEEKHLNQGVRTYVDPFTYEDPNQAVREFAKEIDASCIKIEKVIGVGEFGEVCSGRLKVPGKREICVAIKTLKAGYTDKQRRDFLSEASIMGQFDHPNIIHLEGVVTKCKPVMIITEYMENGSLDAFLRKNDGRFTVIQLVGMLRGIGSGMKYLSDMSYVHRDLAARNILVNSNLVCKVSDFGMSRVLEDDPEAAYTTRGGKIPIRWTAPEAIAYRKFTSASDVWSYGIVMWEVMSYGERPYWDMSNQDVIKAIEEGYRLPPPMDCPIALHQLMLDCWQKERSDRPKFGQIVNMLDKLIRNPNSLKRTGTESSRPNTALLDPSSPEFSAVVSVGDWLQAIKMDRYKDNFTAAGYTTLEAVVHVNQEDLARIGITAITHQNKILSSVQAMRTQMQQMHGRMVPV
How it was run: as §1

CSF1R (FMS) = biological target: T12, CSF1R (FMS) (Homo sapiens, UniProt P07333); conditions: 10 µM compound, ATP Km app
T12 construct: purchased ThermoFisher (SelectScreen, Z'-LYTE)
How it was run: as §1

LYN B = biological target: T13, LYN B (Homo sapiens, UniProt P07948)
T13 construct: purchased ThermoFisher (SelectScreen, Z'-LYTE)
T13 sequence (P07948 1-491 isoform P07948-2): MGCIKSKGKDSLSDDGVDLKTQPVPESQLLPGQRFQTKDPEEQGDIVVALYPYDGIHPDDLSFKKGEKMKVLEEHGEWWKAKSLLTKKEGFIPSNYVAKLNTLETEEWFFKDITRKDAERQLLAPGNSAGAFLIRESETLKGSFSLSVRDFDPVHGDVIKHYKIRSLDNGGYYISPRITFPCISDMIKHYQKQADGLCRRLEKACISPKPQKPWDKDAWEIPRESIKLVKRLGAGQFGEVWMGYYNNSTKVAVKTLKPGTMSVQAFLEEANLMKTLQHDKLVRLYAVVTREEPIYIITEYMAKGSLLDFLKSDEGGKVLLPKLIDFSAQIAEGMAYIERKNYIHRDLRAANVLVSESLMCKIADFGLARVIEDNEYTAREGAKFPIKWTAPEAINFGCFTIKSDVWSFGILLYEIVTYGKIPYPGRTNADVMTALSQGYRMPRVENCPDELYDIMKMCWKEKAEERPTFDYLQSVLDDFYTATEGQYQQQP
How it was run: as §1

RPS6KA5 (MSK1) = biological target: T14, RPS6KA5 (MSK1) (Homo sapiens, UniProt O75582)
T14 construct: purchased ThermoFisher (SelectScreen, Z'-LYTE)
T14 sequence (O75582 whole entry): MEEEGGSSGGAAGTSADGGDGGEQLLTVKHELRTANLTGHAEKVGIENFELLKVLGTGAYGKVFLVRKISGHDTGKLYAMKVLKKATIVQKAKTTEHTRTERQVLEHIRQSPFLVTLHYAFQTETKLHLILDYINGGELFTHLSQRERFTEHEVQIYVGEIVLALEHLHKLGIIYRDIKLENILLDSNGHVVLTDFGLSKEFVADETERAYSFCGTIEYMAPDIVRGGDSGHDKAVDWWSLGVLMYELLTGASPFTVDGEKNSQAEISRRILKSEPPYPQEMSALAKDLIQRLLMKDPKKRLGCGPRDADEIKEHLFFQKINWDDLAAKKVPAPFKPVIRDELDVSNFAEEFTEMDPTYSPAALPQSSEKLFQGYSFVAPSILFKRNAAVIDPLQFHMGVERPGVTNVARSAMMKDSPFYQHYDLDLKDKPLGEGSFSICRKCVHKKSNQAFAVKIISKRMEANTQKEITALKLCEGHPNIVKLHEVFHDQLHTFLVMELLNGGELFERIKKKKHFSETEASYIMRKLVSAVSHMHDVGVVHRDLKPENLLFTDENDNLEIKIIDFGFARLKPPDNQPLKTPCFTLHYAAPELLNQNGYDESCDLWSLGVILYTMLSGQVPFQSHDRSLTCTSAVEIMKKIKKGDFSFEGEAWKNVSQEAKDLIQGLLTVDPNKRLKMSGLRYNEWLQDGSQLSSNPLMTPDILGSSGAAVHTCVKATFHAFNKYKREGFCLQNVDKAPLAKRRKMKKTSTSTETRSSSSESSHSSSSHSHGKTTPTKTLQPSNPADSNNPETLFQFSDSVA
How it was run: as §1

DYRK1A = biological target: T15, DYRK1A (Homo sapiens, UniProt Q13627)
T15 construct: purchased ThermoFisher (SelectScreen, Z'-LYTE)
How it was run: as §1

AMPK A2/B1/G1 = biological target: T16, AMPK A2/B1/G1 (Homo sapiens, UniProt P54646)
T16 construct: purchased ThermoFisher (SelectScreen, Z'-LYTE)
How it was run: as §1

Compound | inhibition at 10 µM (SRC) | inhibition at 10 µM (FLT1 (VEGFR1)) | inhibition at 10 µM (ABL1) | inhibition at 10 µM (RPS6KB1 (p70S6K)) | inhibition at 10 µM (NEK2) | inhibition at 10 µM (PASK) | inhibition at 10 µM (JAK2 JH1 JH2) | inhibition at 10 µM (PAK2 (PAK65)) | inhibition at 10 µM (NEK1) | inhibition at 10 µM (AKT1 (PKB alpha)) | inhibition at 10 µM (EPHA4) | inhibition at 10 µM (CSF1R (FMS)) | inhibition at 10 µM (LYN B) | inhibition at 10 µM (RPS6KA5 (MSK1)) | inhibition at 10 µM (DYRK1A) | inhibition at 10 µM (AMPK A2/B1/G1) | further results
Cc1ncc(-c2nc(Nc3ccc(C(=O)NCCN4CCCCC4)cc3)ncc2F)n1C(C)C [Compound 3] | 79% | 73% | 91% | 87% | -7.52% | 30% | 76% | 54% | 6.39% | 19% | 55% | 94% | 91% | 86% | 93% | 94% | –
Cc1cc(Nc2nc(N)nn2C(=O)NC(C)C)ccc1Cl [Compound 5] | 26% | 34% | 57% | 7% | -3% | 1.44% | 25% | -1.24% | 21% | 0.31% | 10% | > 80% | 35% | 6.35% | 1.48% | 29% | CSF1R (FMS) % Inhibition (CSF1R (FMS); listed as SN1109056190, 10 µM): 81%
XMD8-92 [Compound 2, reference compound] | – | – | – | – | – | – | – | – | – | – | – | – | – | – | – | – | SRC % Inhibition (SRC; 10 µM compound, ATP Km app): 11%; FLT1 (VEGFR1) % Inhibition (FLT1 (VEGFR1); 10 µM compound, ATP Km app): -1.58%; ABL1 % Inhibition (ABL1; 10 µM compound, ATP Km app): 72%; RPS6KB1 (p70S6K) % Inhibition (RPS6KB1 (p70S6K); 10 µM compound, ATP Km app): 5%; NEK2 % Inhibition (NEK2; 10 µM compound, ATP Km app): -17%; PASK % Inhibition (PASK; 10 µM compound, ATP Km app): 49%; JAK2 JH1 JH2 % Inhibition (JAK2 JH1 JH2; 10 µM compound, ATP Km app): 52%; PAK2 (PAK65) % Inhibition (PAK2 (PAK65); 10 µM compound, ATP Km app): 12%; NEK1 % Inhibition (NEK1; 10 µM compound, ATP Km app): -9%; AKT1 (PKB alpha) % Inhibition (AKT1 (PKB alpha); 10 µM compound, ATP Km app): 41%; EPHA4 % Inhibition (EPHA4; 10 µM compound, ATP Km app): 19%; CSF1R (FMS) % Inhibition (CSF1R (FMS)): 29%; LYN B % Inhibition (LYN B; 10 µM compound, ATP Km app): 39%; RPS6KA5 (MSK1) % Inhibition (RPS6KA5 (MSK1); 10 µM compound, ATP Km app): 47%; DYRK1A % Inhibition (DYRK1A; 10 µM compound, ATP Km app): 2%; AMPK A2/B1/G1 % Inhibition (AMPK A2/B1/G1; 10 µM compound, ATP Km app): 58%
